# From US20020137929A1, “1 - (3-heterocyclylphenyl) isothiourea, -isourea, -guanidine and -amidine herbicidal agents” (Intellectual Property Department, BASF Aktiengesellschaft, priority 1998, published 2002)
# Legend:
# [1] = system: CHEAL (Lambsquarters, Common); assay: Postemergence herbicidal evaluation; type: in vivo, Chenopodium album; conditions: postemergence
# Procedure, shortened: (§1)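 Scores (0–9) reflect plant stand, vigor, malformation, size, chlorosis and general appearance relative to control, read 4 to 5 weeks after treatment and averaged where tests were repeated. Application: about 0.0156–0.500 kg/ha sprayed at 40 psi onto two-week seedlings.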
# [2] = system: CYPSE (Flatsedge); assay: Postemergence weed control under flooded paddy conditions; type: in vivo, Cyperus serotinus; conditions: postemergence weeds, rated 3 to 4 weeks after treatment
# Procedure, shortened: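 Herbicidal effect is judged by eye on a 0–9 scale versus control, 3–4 weeks after dosing. Dosing is into flood water kept 1.5–3 cm over the soil, at about 0.0313–0.500 kg/ha in aqueous/acetone 50/50 v/v, on 3–5 cm weeds and 1.5–2.5-leaf rice seedlings.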
# [3] = system: TRZAWR (Wheat, Winter, cv Riband); assay: Preemergence herbicidal evaluation; type: in vivo, Triticum aestivum; conditions: rated 4-5 weeks after treatment
# Procedure, shortened: (§2)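 Each species is sown separately in potting soil over roughly an inch of soil before any emergence. The soil surface then receives an aqueous acetone spray delivering about 0.0156 to 0.500 kg/ha of compound. After four to five weeks, injury is scored from 0 to 9 relative to a control.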
# [4] = system: SAGPY (Arrowhead (Pygmaea)); assay: Preemergence weed control under flooded paddy conditions; type: in vivo, Sagittaria pygmaea; conditions: rated 3-4 weeks after treatment
# Procedure, shortened: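 Values are visual 0-9 scores against a control for a preemergence application into paddy flood water at about 0.0313 to 0.500 kg/ha. Greenhouse duration was three to four weeks.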
# [5] = system: ORYSAT (Rice, Tebonnet); assay: Preemergence herbicidal evaluation; type: in vivo, Oryza sativa, (L.) Tebonnet; conditions: rated 4-5 weeks after treatment
# Procedure, shortened: as §2
# [6] = system: CASOB (Sicklepod); assay: Postemergence herbicidal evaluation; type: in vivo, Cassia obtusifolia; conditions: postemergence
# Procedure, shortened: as §1
# [7] = system: CYPIR (Rice Flatsedge); assay: Preemergence weed control under flooded paddy conditions; type: in vivo, Cyperus iria; conditions: rated 3-4 weeks after treatment
# Procedure, shortened: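 Visual injury scored 0-9 against control three to four weeks post-treatment, greenhouse-grown. Application: acetone/water (50/50) solutions dosed directly into flood water (1.5-3 cm over silt loam, planted top 0.5 cm), roughly 0.0313 to 0.500 kg/ha active ingredient.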
# [8] = system: GALAP (Galium); assay: Preemergence herbicidal evaluation; type: in vivo, Galium aparine; conditions: rated 4-5 weeks after treatment
# Procedure, shortened: as §2
# [9] = system: ECHCG (Barnyardgrass); assay: Postemergence herbicidal evaluation; type: in vivo, Echinochloa crus-galli; conditions: postemergence
# Procedure, shortened: as §1
# [10] = system: GLXMAW (Soybean, Williams); assay: Preemergence herbicidal evaluation; type: in vivo, Glycine max, (L.) Merr. cv Williams; conditions: rated 4-5 weeks after treatment
# Procedure, shortened: as §2
# [11] = system: ORYSAT (Rice, Tebonnet); assay: Postemergence herbicidal evaluation; type: in vivo, Oryza sativa, (L.) Tebonnet; conditions: postemergence
# Procedure, shortened: as §1
# [12] = system: ZEAMX (Corn, Field); assay: Preemergence herbicidal evaluation; type: in vivo, Zea mays; conditions: rated 4-5 weeks after treatment
# Procedure, shortened: as §2
# [13] = system: SETVI (Foxtail, Green); assay: Preemergence herbicidal evaluation; type: in vivo, Setaria viridis; conditions: rated 4-5 weeks after treatment
# Procedure, shortened: as §2
structure (smiles),measurement,setting,value
"COC(=O)[C@@H](Cc1ccccc1)N1C(=O)CSC1=Nc1cc(-n2c(=O)cc(C(F)(F)F)n(C)c2=O)c(F)cc1Cl [Compound 74, Methyl α-benzyl-2-{{2-chloro-5-[3,6-dihydro-3-methyl-2,6-dioxo-4-(trifluoromethyl)-1(2H)-pyrimidinyl]-4-fluorophenyl}imino}-4-oxo-3-thiazolidineacetate, D-]",CHEAL herbicidal rating,[1]; rate 0.0158 kg/ha,9.0
same,CHEAL herbicidal rating,[1]; rate 0.0315 kg/ha,9.0
same,Herbicidal rating CYPSE,[2]; Rate 0.0313 kg/ha,0.0
same,Herbicidal rating CYPSE,[2]; Rate 0.0625 kg/ha,5.0
same,Herbicidal rating CYPSE,[2]; Rate 0.1250 kg/ha,5.0
same,Herbicidal rating CYPSE,[2]; Rate 0.2500 kg/ha,9.0
same,Preemergence herbicidal rating TRZAWR,[3]; rate 0.0156 kg/ha,0.0
same,Preemergence herbicidal rating TRZAWR,[3]; rate 0.0313 kg/ha,0.0
same,Preemergence herbicidal rating TRZAWR,[3]; rate 0.0625 kg/ha,1.0
same,Preemergence herbicidal rating TRZAWR,[3]; rate 0.1250 kg/ha,1.0
same,Preemergence herbicidal rating TRZAWR,[3]; rate 0.2500 kg/ha,1.0
same,SAGPY herbicidal effect rating,[4]; 0.0313 kg/ha,3.0
same,SAGPY herbicidal effect rating,[4]; 0.0625 kg/ha,3.0
same,SAGPY herbicidal effect rating,[4]; 0.1250 kg/ha,3.0
same,SAGPY herbicidal effect rating,[4]; 0.2500 kg/ha,9.0
same,Preemergence herbicidal rating ORYSAT,[5]; rate 0.0156 kg/ha,0.0
same,Preemergence herbicidal rating ORYSAT,[5]; rate 0.0313 kg/ha,0.0
same,Preemergence herbicidal rating ORYSAT,[5]; rate 0.0625 kg/ha,1.0
same,Preemergence herbicidal rating ORYSAT,[5]; rate 0.1250 kg/ha,1.0
same,Preemergence herbicidal rating ORYSAT,[5]; rate 0.2500 kg/ha,1.0
same,CASOB herbicidal rating,[6]; rate 0.0158 kg/ha,3.0
same,CASOB herbicidal rating,[6]; rate 0.0315 kg/ha,4.0
same,CASOB herbicidal rating,[6]; rate 0.0630 kg/ha,9.0
same,CYPIR herbicidal effect rating,[7]; 0.0313 kg/ha,0.0
same,CYPIR herbicidal effect rating,[7]; 0.0625 kg/ha,0.0
same,CYPIR herbicidal effect rating,[7]; 0.1250 kg/ha,0.0
same,CYPIR herbicidal effect rating,[7]; 0.2500 kg/ha,0.0
same,Preemergence herbicidal rating GALAP,[8]; rate 0.0156 kg/ha,0.0
same,Preemergence herbicidal rating GALAP,[8]; rate 0.0313 kg/ha,0.0
same,Preemergence herbicidal rating GALAP,[8]; rate 0.0625 kg/ha,0.0
same,Preemergence herbicidal rating GALAP,[8]; rate 0.1250 kg/ha,0.0
same,Preemergence herbicidal rating GALAP,[8]; rate 0.2500 kg/ha,9.0
same,ECHCG herbicidal rating,[9]; rate 0.0158 kg/ha,1.0
same,ECHCG herbicidal rating,[9]; rate 0.0315 kg/ha,1.0
same,ECHCG herbicidal rating,[9]; rate 0.0630 kg/ha,1.0
same,Preemergence herbicidal rating GLXMAW,[10]; rate 0.0156 kg/ha,0.0
same,Preemergence herbicidal rating GLXMAW,[10]; rate 0.0313 kg/ha,1.0
same,Preemergence herbicidal rating GLXMAW,[10]; rate 0.0625 kg/ha,0.0
same,Preemergence herbicidal rating GLXMAW,[10]; rate 0.1250 kg/ha,1.0
same,Preemergence herbicidal rating GLXMAW,[10]; rate 0.2500 kg/ha,1.0
same,ORYSAT herbicidal rating,[11]; rate 0.0158 kg/ha,3.5
same,ORYSAT herbicidal rating,[11]; rate 0.0315 kg/ha,4.5
same,ORYSAT herbicidal rating,[11]; rate 0.0630 kg/ha,5.5
same,Preemergence herbicidal rating ZEAMX,[12]; rate 0.0156 kg/ha,0.0
same,Preemergence herbicidal rating ZEAMX,[12]; rate 0.0313 kg/ha,0.0
same,Preemergence herbicidal rating ZEAMX,[12]; rate 0.0625 kg/ha,0.0
same,Preemergence herbicidal rating ZEAMX,[12]; rate 0.1250 kg/ha,1.0
same,Preemergence herbicidal rating ZEAMX,[12]; rate 0.2500 kg/ha,1.0
same,Preemergence herbicidal rating SETVI,[13]; rate 0.0156 kg/ha,0.0
same,Preemergence herbicidal rating SETVI,[13]; rate 0.0313 kg/ha,0.0
same,Preemergence herbicidal rating SETVI,[13]; rate 0.0625 kg/ha,1.0
same,Preemergence herbicidal rating SETVI,[13]; rate 0.1250 kg/ha,4.0
same,Preemergence herbicidal rating SETVI,[13]; rate 0.2500 kg/ha,9.0
